Experimental data reported in patent US20170119742A1, “MEDICAMENT FOR PREVENTING AND/OR TREATING STRESS DISEASES” (ONO PHARMACEUTICAL CO., LTD., priority 2014, published 2017).

Tests used:
[1] = system: female diarrhea-type IBS patients; experiment: HAM-D (Hamilton Depression scale) in the clinical trial of Biological example 10; assay type: in vivo, human; settings: 60 mg treatment
Method: In the clinical trial of Biological example 10, the therapeutic effect of the compound of the present invention 60 mg treatment on depression and anxiety-related diseases were evaluated using PSS (Perceived Stress Scale) (refer to Journal of Health and Social Behavior, 24, 386-396, 1983), HAM-A (Hamilton Anxiety Scale) (refer to The British journal of medical psychology, 32, 50-55, 1959) and HAM-D (Hamilton Depression scale) (refer to Journal of Neurology, Neurosurgery and Psychiatry, 23, 56-62, 1960) as rating scales.

[2] = system: Wistar rats exposed to physical and mental stressors; experiment: Antistress effect: stool weight excreted during restraint stressor load in rats; assay type: in vivo; settings: rat; for average stool wet weight: 2 h before 1 h restraint stressor, vehicle 1.79 g, normal 0.04 g
Method: Male Sic: Wistar rats (Japan SLC, Inc., at the time of use: 11 weeks old) was exposed to physical and mental stressors (Journal of Pharmacological Science, Vol. 104, p. 263-273, 2007). The vehicle (0.5 w/v % methylcellulose 400 cP solution) or the compound of the present invention (0.1, 0.3, 1 and 3 mg/kg) was orally administered. Two hours after the administration, the stressor load was started by putting the rat in a restraint stress cage (Natsume Seisakusho Co., Ltd.). The antistress effect was evaluated by measuring the stool weight which was excreted during the stressor load of 1 hour (n=12 in each group).

[3] = system: CCK-4 induced stress model; experiment: Antianxiety effect (2): freezing time in CCK-4 induced stress model; assay type: in vivo; settings: rat, 1 and 3 mg/kg oral, 2 h before CCK-4 3 mg/kg s.c., Steel test
Method: Male LEW/CrlCrlj rats (Charles River Laboratories Japan, Inc., at the time of evaluation: 6 weeks old) were used. In accordance with Rupprecht et al. method (Science, Vol. 325, p. 490-493, 2009), cholecystokinin tetrapeptide (CCK-4) (3 mg/kg) was administered subcutaneously to the rat to induce freezing behavior which was used as an indicator of anxiety. The vehicle (0.5 w/v % methylcellulose 400 cP solution) or the compound of the present invention (1 or 3 mg/kg) was orally administered to the rat. Two hours after the administration, CCK-4 (3 mg/kg) was subcutaneously administered. Two minutes after the administration of CCK-4, the front paws of the rat were placed on a wooden block of height 7 cm. […] Instead of CCK-4, the normal group was administered 1% dimethyl formamide which is the vehicle of CCK-4. Cut-off time was set to 120 seconds. This trial was carried out a total five times at about 2 minute intervals, and the sum of the freezing time was calculated.

brain TSPO = target: T1, brain TSPO (Homo sapiens, UniProt P30536); experiment: Prediction of brain TSPO occupancy in steady state, once daily in humans (Biological example 8); settings: for ROmax (%) Predicted 5 percentile / ROmax (%) Predicted 95 percentile / ROmax (%) Predicted median: maximum brain TSPO occupancy; for ROmin (%) Predicted 5 percentile / ROmin (%) Predicted 95 percentile / ROmin (%) Predicted median: minimum brain TSPO occupancy
T1 construct: from tissue; host or cells: living human brain (PET, healthy adults)
T1 sequence (P30536 whole entry): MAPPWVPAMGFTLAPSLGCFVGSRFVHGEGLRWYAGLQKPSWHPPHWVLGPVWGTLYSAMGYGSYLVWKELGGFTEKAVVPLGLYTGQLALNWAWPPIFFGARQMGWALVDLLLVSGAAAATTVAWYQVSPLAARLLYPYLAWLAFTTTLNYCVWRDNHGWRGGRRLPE
Excerpt: Further, a transition in the plasma concentration of the compound of the present invention, in a steady state when administered once daily, was predicted. And brain TSPO occupancy was predicted by using the relationship between plasma concentration and brain TSPO occupancy that shown in FIG. 5.

ROmax (%) Predicted 5 percentile (brain TSPO; dose 1 mg): 28.3%
ROmax (%) Predicted 95 percentile (brain TSPO; dose 1 mg): 48.8%
ROmax (%) Predicted median (brain TSPO; dose 1 mg): 38.4%
ROmin (%) Predicted 5 percentile (brain TSPO; dose 1 mg): 11.5%
ROmin (%) Predicted 95 percentile (brain TSPO; dose 1 mg): 30.5%
ROmin (%) Predicted median (brain TSPO; dose 1 mg): 19.4%
ROmax (%) Predicted 5 percentile (brain TSPO; dose 5 mg): 60.5%
ROmax (%) Predicted 95 percentile (brain TSPO; dose 5 mg): 84.6%
ROmax (%) Predicted median (brain TSPO; dose 5 mg): 72.0%
ROmin (%) Predicted 5 percentile (brain TSPO; dose 5 mg): 38.0%
ROmin (%) Predicted 95 percentile (brain TSPO; dose 5 mg): 67.7%
ROmin (%) Predicted median (brain TSPO; dose 5 mg): 52.5%
ROmax (%) Predicted 5 percentile (brain TSPO; dose 10 mg): 69.6%
ROmax (%) Predicted 95 percentile (brain TSPO; dose 10 mg): 94.2%
ROmax (%) Predicted median (brain TSPO; dose 10 mg): 80.9%
ROmin (%) Predicted 5 percentile (brain TSPO; dose 10 mg): 52.8%
ROmin (%) Predicted 95 percentile (brain TSPO; dose 10 mg): 81.0%
ROmin (%) Predicted median (brain TSPO; dose 10 mg): 67.1%
ROmax (%) Predicted 5 percentile (brain TSPO; dose 20 mg): 75.1%
ROmax (%) Predicted 95 percentile (brain TSPO; dose 20 mg): 100.0%
ROmax (%) Predicted median (brain TSPO; dose 20 mg): 86.4%
ROmin (%) Predicted 5 percentile (brain TSPO; dose 20 mg): 64.6%
ROmin (%) Predicted 95 percentile (brain TSPO; dose 20 mg): 91.5%
ROmin (%) Predicted median (brain TSPO; dose 20 mg): 77.6%
ROmax (%) Predicted 5 percentile (brain TSPO; dose 30 mg): 77.0%
ROmax (%) Predicted 95 percentile (brain TSPO; dose 30 mg): 102.6%
ROmax (%) Predicted median (brain TSPO; dose 30 mg): 88.5%
ROmin (%) Predicted 5 percentile (brain TSPO; dose 30 mg): 69.7%
ROmin (%) Predicted 95 percentile (brain TSPO; dose 30 mg): 94.9%
ROmin (%) Predicted median (brain TSPO; dose 30 mg): 81.8%
ROmax (%) Predicted 5 percentile (brain TSPO; dose 50 mg): 78.7%
ROmax (%) Predicted 95 percentile (brain TSPO; dose 50 mg): 104.0%
ROmax (%) Predicted median (brain TSPO; dose 50 mg): 90.2%
ROmin (%) Predicted 5 percentile (brain TSPO; dose 50 mg): 74.1%
ROmin (%) Predicted 95 percentile (brain TSPO; dose 50 mg): 99.0%
ROmin (%) Predicted median (brain TSPO; dose 50 mg): 85.8%
ROmax (%) Predicted 5 percentile (brain TSPO; dose 60 mg): 78.8%
ROmax (%) Predicted 95 percentile (brain TSPO; dose 60 mg): 104.2%
ROmax (%) Predicted median (brain TSPO; dose 60 mg): 91.0%
ROmin (%) Predicted 5 percentile (brain TSPO; dose 60 mg): 75.0%
ROmin (%) Predicted 95 percentile (brain TSPO; dose 60 mg): 100.1%
ROmin (%) Predicted median (brain TSPO; dose 60 mg): 87.0%
ROmax (%) Predicted 5 percentile (brain TSPO; dose 70 mg): 79.4%
ROmax (%) Predicted 95 percentile (brain TSPO; dose 70 mg): 104.8%
ROmax (%) Predicted median (brain TSPO; dose 70 mg): 91.2%
ROmin (%) Predicted 5 percentile (brain TSPO; dose 70 mg): 76.4%
ROmin (%) Predicted 95 percentile (brain TSPO; dose 70 mg): 101.1%
ROmin (%) Predicted median (brain TSPO; dose 70 mg): 88.2%
ROmax (%) Predicted 5 percentile (brain TSPO; dose 100 mg): 80.1%
ROmax (%) Predicted 95 percentile (brain TSPO; dose 100 mg): 106.1%
ROmax (%) Predicted median (brain TSPO; dose 100 mg): 92.1%
ROmin (%) Predicted 5 percentile (brain TSPO; dose 100 mg): 77.6%
ROmin (%) Predicted 95 percentile (brain TSPO; dose 100 mg): 103.1%
ROmin (%) Predicted median (brain TSPO; dose 100 mg): 90.0%
Structure (SMILES): COc1cc(Cl)ccc1[C@H]1c2[nH]c3cccc(F)c3c2C2(CC2)CN1C(C)=O [the compound of the present invention, (1S)-2-acetyl-1-(4-chloro-2-methoxyphenyl)-5-fluoro-1,2,3,9-tetrahydrospiro[β-carboline-4,1′-cyclopropane]]
HAM-D score, 4th week ([1]; Patient D, baseline 18): 2
HAM-D score, Amount of change from baseline ([1]; Patient D, baseline 18, 4th week): −16
HAM-D score, 4th week ([1]; Patient E, baseline 13): 3
HAM-D score, Amount of change from baseline ([1]; Patient E, baseline 13, 4th week): −10
HAM-D score, 4th week ([1]; Patient F, baseline 20): 13
HAM-D score, Amount of change from baseline ([1]; Patient F, baseline 20, 4th week): −7
HAM-D score, 4th week ([1]; Patient G, baseline 13): 4
HAM-D score, Amount of change from baseline ([1]; Patient G, baseline 13, 4th week): −9
average stool wet weight ([2]; 0.1 mg/kg oral): 1.48 g
average stool wet weight ([2]; 0.3 mg/kg oral): 0.96 g
average stool wet weight ([2]; 1 mg/kg oral): 0.60 g
average stool wet weight ([2]; 3 mg/kg oral): 0.67 g
effect on stool wet weight compared to the vehicle treated group ([2]; dose of 0.3, 1 and 3 mg/kg oral): significantly inhibit the stool wet weight
freezing time vs. vehicle control group [3]: shortened this extended freezing time significantly
